Reference: patent US9211310B2, “Use of a Chinese medicine composition in preparing medicaments for treating secondary prevention of myocardial infarction” (TASLY PHARMACEUTICAL GROUP CO., LTD, priority 2010, dated 2015)

System: patients after acute myocardial infarction
Test: Life quality, Seattle Angina Questionnaire (SAQ), same clinical trial
Format: in vivo, human
From the text: 3508 patients who were in accordance with the diagnostic standards of AMI for 28 days to 2 years and differentiated as Qi deficiency and blood stagnation syndrome by TCM were studied. 0.5 g Chinese medicine composition prepared by the method of EXAMPLE 1 (Coded as QSYQ) was administrated half an hour after meal, 3 times per day.
There were 19 questions in the Seattle angina questionnaire (SAQ), including 5 parts: physical limitation (PL), anginal stability (AS), anginal frequency (AF), treatment satisfaction (TS) and disease perception (DP). After being given necessary explanation by doctors, the questions were answered independently by patients.
They included the overall survival time, angina pectoris score, TCM symptom score and life quality score, where angina pectoris score, TCM symptom score and life quality score were evaluated at randomization, in 1st, 3rd, 6th, 9th, 12th month after treatment and 18th month after follow-up.
All evaluation results of SAQ were described during the period of observation, and Wilcoxon rank sum test was used for inter-group comparison.
The evaluation results in the SAQ were depicted in different observations, and inter-group comparison was tested by Wilcoxon Rank-sum test.

## CC(=O)Oc1ccccc1C(=O)O [Control group, aspirine]
Baseline, FAS
  SAQ Question 1-9: Other reasons, % of cases: (5.84%)
  SAQ Question 1-9: Other reasons, cases: 99
  SAQ Question 1-9: Severely limited, % of cases: (47.34%)
  SAQ Question 1-9: Severely limited, cases: 802
  SAQ Question 1-9: Slightly limited, % of cases: (8.56%)
  SAQ Question 1-9: Slightly limited, cases: 145
Baseline, PP
  SAQ 2nd question: Clearly increased, % of cases: (3.09%)
  SAQ 2nd question: Clearly increased, cases: 46
  SAQ 2nd question: Clearly reduced, % of cases: (12.16%)
  SAQ 2nd question: Clearly reduced, cases: 181
  SAQ 2nd question: Same, % of cases: (63.00%)
  SAQ 2nd question: Same, cases: 938
  SAQ 2nd question: Slightly increased, % of cases: (6.72%)
  SAQ 2nd question: Slightly increased, cases: 100
  SAQ 2nd question: Slightly reduced, % of cases: (15.04%)
  SAQ 2nd question: Slightly reduced, cases: 224
  SAQ 3rd question: 1-2 times per week, % of cases: (15.04%)
  SAQ 3rd question: 1-2 times per week, cases: 224
  SAQ 3rd question: 1-3 times per day, % of cases: (6.72%)
  SAQ 3rd question: 1-3 times per day, cases: 100
  SAQ 3rd question: <1 time per week, % of cases: (12.16%)
  SAQ 3rd question: <1 time per week, cases: 181
  SAQ 3rd question: No onset, % of cases: (0.00%)
  SAQ 3rd question: No onset, cases: 0
  SAQ 3rd question: ≧3 times per week, % of cases: (63.00%)
  SAQ 3rd question: ≧3 times per week, cases: 938
  SAQ 3rd question: ≧4 times per day, % of cases: (3.09%)
  SAQ 3rd question: ≧4 times per day, cases: 46
  SAQ Question 1-3: Mildly limited, number of patients: 135
  SAQ Question 1-3: Mildly limited, percent of patients: (9.04%)
  SAQ Question 1-3: Moderately limited, number of patients: 44
  SAQ Question 1-3: Moderately limited, percent of patients: (2.95%)
  SAQ Question 1-3: Not limited, number of patients: 985
  SAQ Question 1-3: Not limited, percent of patients: (65.97%)
  SAQ Question 1-3: Other reasons, number of patients: 10
  SAQ Question 1-3: Other reasons, percent of patients: (0.67%)
  SAQ Question 1-3: Severely limited, number of patients: 12
  SAQ Question 1-3: Severely limited, percent of patients: (0.80%)
  SAQ Question 1-3: Slightly limited, number of patients: 307
  SAQ Question 1-3: Slightly limited, percent of patients: (20.56%)
  SAQ Question 1-4: Mildly limited, number of patients: 347
  SAQ Question 1-4: Mildly limited, percent of patients: (23.30%)
  SAQ Question 1-4: Moderately limited, number of patients: 185
  SAQ Question 1-4: Moderately limited, percent of patients: (12.42%)
  SAQ Question 1-4: Not limited, number of patients: 414
  SAQ Question 1-4: Not limited, percent of patients: (27.80%)
  SAQ Question 1-4: Other reasons, number of patients: 14
  SAQ Question 1-4: Other reasons, percent of patients: (0.94%)
  SAQ Question 1-4: Severely limited, number of patients: 51
  SAQ Question 1-4: Severely limited, percent of patients: (3.43%)
  SAQ Question 1-4: Slightly limited, number of patients: 478
  SAQ Question 1-4: Slightly limited, percent of patients: (32.10%)
  SAQ Question 1-5: Mildly limited, number of patients: 309
  SAQ Question 1-5: Mildly limited, percent of patients: (20.72%)
  SAQ Question 1-5: Moderately limited, number of patients: 210
  SAQ Question 1-5: Moderately limited, percent of patients: (14.08%)
  SAQ Question 1-5: Not limited, number of patients: 473
  SAQ Question 1-5: Not limited, percent of patients: (31.72%)
  SAQ Question 1-5: Other reasons, number of patients: 12
  SAQ Question 1-5: Other reasons, percent of patients: (0.80%)
  SAQ Question 1-5: Severely limited, number of patients: 46
  SAQ Question 1-5: Severely limited, percent of patients: (3.09%)
  SAQ Question 1-5: Slightly limited, number of patients: 441
  SAQ Question 1-5: Slightly limited, percent of patients: (29.58%)
  SAQ Question 1-9: Mildly limited, % of cases: (14.67%)
  SAQ Question 1-9: Mildly limited, cases: 213
  SAQ Question 1-9: Moderately limited, % of cases: (20.73%)
  SAQ Question 1-9: Moderately limited, cases: 301
  SAQ Question 1-9: Not limited, % of cases: (2.27%)
  SAQ Question 1-9: Not limited, cases: 33
  SAQ Question 1-9: Other reasons, % of cases: (6.34%)
  SAQ Question 1-9: Other reasons, cases: 92
  SAQ Question 1-9: Severely limited, % of cases: (48.55%)
  SAQ Question 1-9: Severely limited, cases: 705
  SAQ Question 1-9: Slightly limited, % of cases: (7.44%)
  SAQ Question 1-9: Slightly limited, cases: 108
FAS, 1 month after treatment
  8th question: Dissatisfied, patients (%): (0.34%)
  8th question: Highly satisfied, patients (%): (17.37%)
  8th question: Mostly dissatisfied, patients (%): (4.07%)
  8th question: Mostly satisfied, patients (%): (50.29%)
  8th question: Partly satisfied, patients (%): (27.92%)
  9th question: Few, patients (%): (26.78%)
  9th question: Mild, patients (%): (36.07%)
  9th question: Moderate, patients (%): (18.81%)
  9th question: Severe, patients (%): (2.24%)
  9th question: Uneffective, patients (%): (16.11%)
  10th question: Dissatisfied, patients (%): (22.71%)
  10th question: Highly satisfied, patients (%): (4.07%)
  10th question: Mostly dissatisfied, patients (%): (22.94%)
  10th question: Mostly satisfied, patients (%): (20.70%)
  10th question: Partly satisfied, patients (%): (29.59%)
  11th question: Continuously worried, patients (%): (6.71%)
  11th question: No worried, patients (%): (4.70%)
  11th question: Occasionally worried, patients (%): (40.94%)
  11th question: Often worried, patients (%): (20.93%)
  11th question: Seldom worried, patients (%): (26.72%)
  SAQ 4th question, 1-2 times per week: % of patients: (17.55%)
  SAQ 4th question, 1-2 times per week: number of patients: 306
  SAQ 4th question, 1-3 times per day: % of patients: (6.54%)
  SAQ 4th question, 1-3 times per day: number of patients: 114
  SAQ 4th question, <1 time per week: % of patients: (9.58%)
  SAQ 4th question, <1 time per week: number of patients: 167
  SAQ 4th question, Not used: % of patients: (53.10%)
  SAQ 4th question, Not used: number of patients: 926
  SAQ 4th question, ≧3 times per week: % of patients: (13.19%)
  SAQ 4th question, ≧3 times per week: number of patients: 230
  SAQ 4th question, ≧4 times per day: % of patients: (0.06%)
  SAQ 4th question, ≧4 times per day: number of patients: 1
  SAQ 5th question, Few: % of patients: (21.56%)
  SAQ 5th question, Few: number of patients: 376
  SAQ 5th question, Mild: % of patients: (28.90%)
  SAQ 5th question, Mild: number of patients: 504
  SAQ 5th question, Moderate: % of patients: (17.43%)
  SAQ 5th question, Moderate: number of patients: 304
  SAQ 5th question, None: % of patients: (26.32%)
  SAQ 5th question, None: number of patients: 459
  SAQ 5th question, Not medicated by doctors: % of patients: (3.38%)
  SAQ 5th question, Not medicated by doctors: number of patients: 59
  SAQ 5th question, Severe: % of patients: (2.41%)
  SAQ 5th question, Severe: number of patients: 42
  SAQ 6th question, Dissatisfied: % of patients: (0.46%)
  SAQ 6th question, Dissatisfied: number of patients: 8
  SAQ 6th question, Highly consent: % of patients: (18.00%)
  SAQ 6th question, Highly consent: number of patients: 314
  SAQ 6th question, Mostly dissatisfied: % of patients: (4.01%)
  SAQ 6th question, Mostly dissatisfied: number of patients: 70
  SAQ 6th question, Mostly satisfied: % of patients: (49.14%)
  SAQ 6th question, Mostly satisfied: number of patients: 857
  SAQ 6th question, Partly satisfied: % of patients: (28.38%)
  SAQ 6th question, Partly satisfied: number of patients: 495
  SAQ 7th question, Dissatisfied: % of patients: (0.17%)
  SAQ 7th question, Dissatisfied: number of patients: 3
  SAQ 7th question, Highly satisfied: % of patients: (23.31%)
  SAQ 7th question, Highly satisfied: number of patients: 406
  SAQ 7th question, Mostly dissatisfied: % of patients: (3.10%)
  SAQ 7th question, Mostly dissatisfied: number of patients: 54
  SAQ 7th question, Mostly satisfied: % of patients: (49.94%)
  SAQ 7th question, Mostly satisfied: number of patients: 870
  SAQ 7th question, Partly satisfied: % of patients: (23.48%)
  SAQ 7th question, Partly satisfied: number of patients: 409
  SAQ Question 1-1 Mildly limited, number of patients: 24
  SAQ Question 1-1 Mildly limited, percent of patients: (1.38%)
  SAQ Question 1-1 Moderately limited, number of patients: 11
  SAQ Question 1-1 Moderately limited, percent of patients: (0.63%)
  SAQ Question 1-1 Not limited, number of patients: 1607
  SAQ Question 1-1 Not limited, percent of patients: (92.20%)
  SAQ Question 1-1 Other reasons, number of patients: 4
  SAQ Question 1-1 Other reasons, percent of patients: (0.23%)
  SAQ Question 1-1 Severely limited, number of patients: 2
  SAQ Question 1-1 Severely limited, percent of patients: (0.11%)
  SAQ Question 1-1 Slightly limited, number of patients: 95
  SAQ Question 1-1 Slightly limited, percent of patients: (5.45%)
  SAQ Question 1-2 Mildly limited, number of patients: 32
  SAQ Question 1-2 Mildly limited, percent of patients: (1.84%)
